This series is described as follows: solubility of sildenafil citrate as a function of pH. Type of series: physicochemical. The following applies: at pH values greater than 6. From the text:
Matrix formulations according to the present invention may contain a buffering agent. This is particularly useful when the formulation contains sildenafil citrate. A buffering agent of particular interest is aspartic acid. When it forms part of a matrix tablet, aspartic acid acts as a buffering agent to maintain a low pH at the surface of the tablet. […] When present, aspartic acid will typically make up 15–30% by weight of the formulation.

Counter-ions that a name gives are not always drawn.

For the compound `CCCc1nn(C)c2c(=O)[nH]c(-c3cc(S(=O)(=O)N4CCN(C)CC4)ccc3OCC)nc12` [sildenafil citrate, Sildenafil citrate], the solubility result is “low solubility”.

The values above are taken from US6964780B1, “Controlled-release pharmaceutical formulations” (Pfizer Inc., priority 1998, dated 2005).
